Assay results reported in article PMC1322272 (2005).

Test system: 35mer RNA aptamer (RNA, aptamer) GGCGUGUAGGAUAUGCUUCGGCAGAAGGACACGCC
Experiment: fluorescence quenching of ligand
Details: 50 mM NaCl, 10 mM MgCl2; 100 mM HEPES, 295 K; 1 µM ligand, RNA titrated

ΔGassociation: -8.84 ± 0.24 kcal/mol
SMILES: Cc1cc2nc3c(=O)[nH]c(=O)nc-3n(C[C@H](O)[C@H](O)[C@H](O)COP(=O)(O)O)c2cc1C
